In the NIST ThermoML archive (doi:10.1021/je900511c):
± gives the expanded uncertainty stated by the source.

Conditions: Liquid, Closed cell (Static) method

Question: With `CCO[Si](C)(Cl)Cl` [dichloroethoxymethylsilane] as the molecule, how does the “vapor or sublimation pressure” value (312.94 K) read?
Answer: 11.32 ± 0.12 kPa

Question: What about the “vapor or sublimation pressure” value (318.43 K) of the same molecule?
Answer: 14.32 ± 0.13 kPa

Question: And the “vapor or sublimation pressure” value (323.01 K)?
Answer: 17.32 ± 0.15 kPa

Question: What about the “vapor or sublimation pressure” value (326.93 K) of the same molecule?
Answer: 20.32 ± 0.17 kPa

Question: And the “vapor or sublimation pressure” value (330.24 K)?
Answer: 23.32 ± 0.2 kPa

Question: What about the “vapor or sublimation pressure” value (333.29 K) of the same molecule?
Answer: 26.32 ± 0.21 kPa

Question: And the “vapor or sublimation pressure” value (336.2 K)?
Answer: 29.32 ± 0.23 kPa

Question: And the “vapor or sublimation pressure” value (338.84 K)?
Answer: 32.33 ± 0.25 kPa

Question: What about the “vapor or sublimation pressure” value (341.28 K) of the same molecule?
Answer: 35.33 ± 0.26 kPa

Question: And the “vapor or sublimation pressure” value (343.57 K)?
Answer: 38.33 ± 0.28 kPa

Question: And the “vapor or sublimation pressure” value (345.66 K)?
Answer: 41.33 ± 0.31 kPa

Question: And the “vapor or sublimation pressure” value (347.54 K)?
Answer: 44.33 ± 0.33 kPa

Question: What about the “vapor or sublimation pressure” value (349.48 K) of the same molecule?
Answer: 47.33 ± 0.33 kPa

Question: And the “vapor or sublimation pressure” value (351.36 K)?
Answer: 50.33 ± 0.35 kPa

Question: What about the “vapor or sublimation pressure” value (353.04 K) of the same molecule?
Answer: 53.33 ± 0.37 kPa

Question: What about the “vapor or sublimation pressure” value (354.72 K) of the same molecule?
Answer: 56.33 ± 0.39 kPa

Question: And the “vapor or sublimation pressure” value (356.25 K)?
Answer: 59.33 ± 0.4 kPa

Question: What about the “vapor or sublimation pressure” value (357.82 K) of the same molecule?
Answer: 62.33 ± 0.41 kPa

Question: And the “vapor or sublimation pressure” value (359.25 K)?
Answer: 65.33 ± 0.45 kPa

Question: What about the “vapor or sublimation pressure” value (360.57 K) of the same molecule?
Answer: 68.33 ± 0.46 kPa

Question: What about the “vapor or sublimation pressure” value (361.95 K) of the same molecule?
Answer: 71.33 ± 0.47 kPa

Question: What about the “vapor or sublimation pressure” value (363.22 K) of the same molecule?
Answer: 74.33 ± 0.47 kPa

Question: What about the “vapor or sublimation pressure” value (364.59 K) of the same molecule?
Answer: 77.33 ± 0.47 kPa

Question: And the “vapor or sublimation pressure” value (365.87 K)?
Answer: 80.33 ± 0.52 kPa

Question: What about the “vapor or sublimation pressure” value (366.98 K) of the same molecule?
Answer: 83.33 ± 0.53 kPa

Question: And the “vapor or sublimation pressure” value (368.21 K)?
Answer: 86.33 ± 0.52 kPa

Question: What about the “vapor or sublimation pressure” value (369.38 K) of the same molecule?
Answer: 89.33 ± 0.55 kPa

Question: And the “vapor or sublimation pressure” value (370.5 K)?
Answer: 92.33 ± 0.58 kPa

Question: And the “vapor or sublimation pressure” value (371.51 K)?
Answer: 95.33 ± 0.6 kPa

Question: What about the “vapor or sublimation pressure” value (372.58 K) of the same molecule?
Answer: 98.33 ± 0.59 kPa

Question: What about the “vapor or sublimation pressure” value (373.6 K) of the same molecule?
Answer: 101.27 ± 0.6 kPa
